Measurements as given in patent US20070203098A1, “Pten Inhibitors” (priority 2004, published 2007).
Several values for one entry are separate records, joined by “and”; a condition that tells them apart may be missing. Equal values may be shown once. Read-outs that look alike come from different tables or passages of the source. Marks after values point to notes of the source that are not given here. One block for each molecule: values may come before it.

Assays:
mouse aortic ring = experiment: In Vitro Aortic Ring Angiogenesis Assay; assay type: cell-based; settings: 120 h; for activity at 40 µM: 5 days
PTP1B = molecular target: T1, PTP1B (Homo sapiens, UniProt P18031); experiment: PTP1B Inhibition Assay: IC50 Determinations; assay type: biochemical
T1 sequence (P18031 1-435): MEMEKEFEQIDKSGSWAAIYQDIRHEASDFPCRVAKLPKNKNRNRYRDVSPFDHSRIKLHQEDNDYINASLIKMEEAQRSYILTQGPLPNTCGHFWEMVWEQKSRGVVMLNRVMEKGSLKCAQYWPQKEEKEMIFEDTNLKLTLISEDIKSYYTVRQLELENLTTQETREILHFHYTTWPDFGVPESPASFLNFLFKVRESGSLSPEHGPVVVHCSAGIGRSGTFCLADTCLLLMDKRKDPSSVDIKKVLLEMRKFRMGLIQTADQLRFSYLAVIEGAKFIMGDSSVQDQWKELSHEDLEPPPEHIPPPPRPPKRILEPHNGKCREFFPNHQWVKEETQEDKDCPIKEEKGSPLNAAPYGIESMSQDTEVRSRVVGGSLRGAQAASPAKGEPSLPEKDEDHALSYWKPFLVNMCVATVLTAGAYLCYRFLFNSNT

[1] = test system: human brain endothelial cells (HBEC); experiment: MTT Assay for Determining Toxicity, HBEC; assay type: cell-based; settings: Endothelial cell, read-out: Viability IC50 HBEC
PTEN [2] = molecular target: T2, PTEN (Homo sapiens, UniProt P60484); experiment: PTEN Inhibition Assay: IC50 Determinations; assay type: biochemical
T2 sequence (P60484 whole entry, species assumed): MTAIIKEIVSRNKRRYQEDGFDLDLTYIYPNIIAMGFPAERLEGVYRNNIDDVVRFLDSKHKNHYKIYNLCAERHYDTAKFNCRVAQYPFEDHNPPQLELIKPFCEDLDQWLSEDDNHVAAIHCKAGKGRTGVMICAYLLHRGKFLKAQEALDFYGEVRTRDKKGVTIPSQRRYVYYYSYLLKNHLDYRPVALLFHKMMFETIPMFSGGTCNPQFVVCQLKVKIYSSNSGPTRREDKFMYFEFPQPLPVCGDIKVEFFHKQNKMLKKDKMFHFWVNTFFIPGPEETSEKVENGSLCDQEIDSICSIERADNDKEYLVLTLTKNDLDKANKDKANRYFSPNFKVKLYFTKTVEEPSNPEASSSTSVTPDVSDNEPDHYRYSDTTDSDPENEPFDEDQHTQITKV

[3] = test system: human non-small cell lung cancer cells (H1299); experiment: MTT Assay for Determining Toxicity, H1299; assay type: cell-based; settings: read-out: Viability IC50 H1299
MEF PTEN null = experiment: Migration Assay, MEF PTEN null; assay type: cell-based, mouse
[4] = test system: HBEC (Human Brain Endothelial Cells); experiment: Wound Healing Assay; assay type: cell-based
PTEN [5] = molecular target: T2, PTEN; experiment: PTEN Inhibition Assay: General Screening; assay type: biochemical
MEF PTEN wt = experiment: Migration Assay, MEF PTEN wt; assay type: cell-based, mouse
RAC1-GTP = assay type: cell-based, mouse
[6] = test system: human prostate cancer cells (PC-3); experiment: MTT Assay for Determining Toxicity, PC-3; assay type: cell-based; settings: read-out: Viability IC50 PC-3
U87MG PTEN null = assay type: cell-based
U87MG PTEN wt = assay type: cell-based
GST-PTEN fusion protein = GST-PTEN fusion protein (Homo sapiens, UniProt P60484); experiment: Immobilized PTEN; assay type: biochemical; settings: PLV substrate
Sequence of GST-PTEN fusion protein (P60484 whole entry, the tested form may be a part): as the sequence (P60484 whole entry, species assumed) above
Protocol: In the PTEN inhibition assay, to exclude the possibility that PTEN inhibitor candidates interact with the unilameller PIP3 lipid vesicle (PLV) to block PTEN and artificially mimic PTEN inhibition, PTEN was bound to a solid support and treated with inhibitor, the inhibitor washed away and then the capability of the bound PTEN to dephosphorylate PLV was determined. […] The gel was centrifuged, washed 3 times and centrifuged again. […] Then a 100 ul portion of malachite green buffer (Upstate, Charlottesville, Va.) was added to develop the color in the dark at room temperature. […] Optical density measurements were converted to nanomoles of phosphate detected using a phosphate-malachite green standard calibration curve.

[7] = read-out: Branch (% of control)
[8] = read-out: % Inhibition @ 250 uM
[9] = MTT, serum-free, 2 hours with compound
[10] = NCI-H1299, MTT, serum-free, 2 hours with compound
[11] = relative to no treatment control

Compound: O=c1cc(N2CCOCC2)oc2c(-c3ccccc3)cccc12 [LY294002, reference compound]
activity at 40 µM (mouse aortic ring; [7]): 0 to 0.8%
activity at 40 µM (mouse aortic ring; read-out: Stem (% of control)): 0 to 2%

Compound: CC(C)(C)C(=O)Nc1ccc2c(c1)C(=O)C(=O)c1ccccc1-2 [SF1670-000, N-(9,10-Dioxo-9,10-dihydro-phenanthren-2-yl)-2,2-dimethyl-propionamide]
IC50 (PTP1B): 17 µM
IC50 ([1]; 2 h): 5 µM
IC50 (PTEN [2]): 2 µM
IC50 ([3]; NCI-H1299, 2 h): 10 µM
migration number, Average (MEF PTEN null): 47.20 and 49.30 and 49.90 and 47.60 and 45.90
HBEC migration across the wound, in words [4]: migrate faster
inhibition at 250 µM (PTEN [5]; [8]): 100%
migration number, Average (MEF PTEN wt): 16.00 and 22.60 and 31.20 and 28.70 and 26.80
integrin induced activation of RAC to its GTP bound state (RAC1-GTP): augmented integrin induced activation of RAC
IC50 ([6]; 2 h): 44 µM
activity at 5 µM (mouse aortic ring; [7]): 126 to 166%
activity at 5 µM (mouse aortic ring; read-out: Stem (% of control)): 107 to 196%
migration number, Average (U87MG PTEN null): 60.90 and 57.20
concentration of maximal induction of migration (U87MG PTEN wt): 30 nM

Compound: O=C1C(=O)c2cccnc2-c2ncccc21 [SF1720-000, 1,10-phenanthroline-5,6-dione]
IC50 (PTP1B; Table 29, read-out: PTP1B IC50): > 250 µM
IC50 [1, 9]: 1 µM
IC50 (PTEN [2]; Table 1, read-out: PTEN Inhibition IC50): 5 µM
IC50 (PTEN [2]; Table 25, read-out: PTEN IC50): 5 µM
IC50 (PTEN [2]; Table 29, read-out: PTEN IC50): 5 µM
selective inhibition for PTEN over PTP1B (PTEN [2]; ratio of IC50's): more than 50 fold
IC50 [3, 10]: < 1 µM
migration number, Average (MEF PTEN null; 125 uM, Table 4): 36.50
migration number, Average (MEF PTEN null; 250 uM, Table 4): 37.30
distance the cells have grown out ([4]; 10 nM, 2 hrs): 0.03* millimeters
distance the cells have grown out ([4]; 10 nM, 4 hrs): 0.04667 millimeters
distance the cells have grown out ([4]; 10 nM, 6 hrs): 0.08* millimeters
distance the cells have grown out ([4]; 10 nM, 24 hrs): 0.155* millimeters
distance the cells have grown out ([4]; 50 nM, 2 hrs): 0.03667 millimeters
distance the cells have grown out ([4]; 50 nM, 4 hrs): 0.04667 millimeters
distance the cells have grown out ([4]; 50 nM, 6 hrs): 0.05667* millimeters
distance the cells have grown out ([4]; 50 nM, 24 hrs): 0.1583* millimeters
distance the wound edge had moved forward ([4]; 0.111 uM, 2 hrs): 0.04333 mm
distance the wound edge had moved forward ([4]; 0.111 uM, 4 hrs): 0.05667 mm
distance the wound edge had moved forward ([4]; 0.111 uM, 6 hrs): 0.06833 mm
distance the cells have grown out ([4]; 250 nM, 2 hrs): 0.025 millimeters
distance the cells have grown out ([4]; 250 nM, 4 hrs): 0.03667 millimeters
distance the cells have grown out ([4]; 250 nM, 6 hrs): 0.05167* millimeters
distance the cells have grown out ([4]; 250 nM, 24 hrs): 0.1117* millimeters
distance the wound edge had moved forward ([4]; 0.333 uM, 2 hrs): 0.05 mm
distance the wound edge had moved forward ([4]; 0.333 uM, 4 hrs): 0.085 mm
distance the wound edge had moved forward ([4]; 0.333 uM, 6 hrs): 0.1333 mm
HBEC migration across the wound, in words [4, 11]: migrate faster
inorganic phosphate detected, oriPTEN + 1720, Average (GST-PTEN fusion protein; PTEN in solution): 0.1028 nmol
inorganic phosphate detected, oriPTEN + 1720 (GST-PTEN fusion protein; PTEN in solution, single determinations): 0.0995 nmol and 0.106 nmol
inorganic phosphate detected, PTEN gel/1720 bound, Average (GST-PTEN fusion protein; immobilized PTEN pretreated 1 hour, washed): 0.1142 nmol
inorganic phosphate detected, PTEN gel/1720 bound (GST-PTEN fusion protein; immobilized PTEN pretreated 1 hour, washed, single determinations): 0.1191 nmol and 0.1093 nmol
migration number, Average (MEF PTEN wt; 125 uM, Table 4): 18.20
migration number, Average (MEF PTEN wt; 250 uM, Table 4): 11.90
IC50 [6, 9]: 7 µM

IC50 (PTP1B; Table 29, read-out: PTP1B IC50): 16.3 µM
IC50 (PTEN [2]; Table 29, read-out: PTEN IC50): 2.2 µM
inhibition at 250 µM (PTEN [5]; 250 uM, Table 27 isatins, read-out: % Inhibition @250 uM): 99.4%
Compound: O=C1Nc2ccc([N+](=O)[O-])cc2C1=O [SF1770-000, 5-nitroindoline-2,3-dione]
IC50 [1, 9]: > 1000 µM
IC50 [3, 10]: 695 µM
migration number, Average (MEF PTEN null; 125 uM, Table 4): 42.30
migration number, Average (MEF PTEN null; 250 uM, Table 4): 41.50
distance the cells have grown out ([4]; 10 nM, 2 hrs): 0.02667* millimeters
distance the cells have grown out ([4]; 10 nM, 4 hrs): 0.045* millimeters
distance the cells have grown out ([4]; 10 nM, 6 hrs): 0.065* millimeters
distance the cells have grown out ([4]; 10 nM, 24 hrs): 0.1483* millimeters
distance the cells have grown out ([4]; 50 nM, 2 hrs): 0.05 millimeters
distance the cells have grown out ([4]; 50 nM, 4 hrs): 0.06 millimeters
distance the cells have grown out ([4]; 50 nM, 6 hrs): 0.075 millimeters
distance the cells have grown out ([4]; 50 nM, 24 hrs): 0.2233* millimeters
distance the cells have grown out ([4]; 250 nM, 2 hrs): 0.04 millimeters
distance the cells have grown out ([4]; 250 nM, 4 hrs): 0.05167 millimeters
distance the cells have grown out ([4]; 250 nM, 6 hrs): 0.06667 millimeters
distance the cells have grown out ([4]; 250 nM, 24 hrs): 0.2017* millimeters
distance the cells have grown out ([4]; 1000 nM, 2 hrs): 0.04 millimeters
distance the cells have grown out ([4]; 1000 nM, 4 hrs): 0.06167 millimeters
distance the cells have grown out ([4]; 1000 nM, 6 hrs): 0.07667 millimeters
distance the cells have grown out ([4]; 1000 nM, 24 hrs): 0.2417 millimeters
HBEC migration across the wound, in words [4, 11]: migrate faster
migration number, Average (MEF PTEN wt; 125 uM, Table 4): 22.90
migration number, Average (MEF PTEN wt; 250 uM, Table 4): 22.40
IC50 [6, 9]: > 1000 µM

Compound: Cc1ccc(C(=O)Nc2ccc3c(c2)C(=O)C(=O)c2ccccc2-3)cc1 [SF1779-000]
IC50 (PTP1B): 0.233 µM
IC50 (PTEN [2]): 0.342 µM
migration number, Average (MEF PTEN null): 47.30 and 43.50
inhibition at 250 µM (PTEN [5]; [8]): 99.8%
migration number, Average (MEF PTEN wt): 20.60 and 18.00
activity at 5 µM (mouse aortic ring; [7]): 112 to 138%
activity at 5 µM (mouse aortic ring; read-out: Stem (% of control)): 92 to 125%

Compound: Nc1ccc2c(c1)C(=O)C(=O)c1ccccc1-2 [SF1789-000]
IC50 (PTP1B): 2.97 µM
IC50 (PTEN [2]): 0.776 µM
inhibition at 250 µM (PTEN [5]; [8]): 99%

Compound: O=C(COc1ccc(Cl)cc1)Nc1ccc2c(c1)C(=O)C(=O)c1ccccc1-2 [SF1790-000]
IC50 (PTP1B): 1 to 10 µM
IC50 (PTEN [2]): 2.6 µM
inhibition at 250 µM (PTEN [5]; [8]): 99.2%

Compound: O=C(COc1ccccc1[N+](=O)[O-])Nc1ccc2c(c1)C(=O)C(=O)c1ccccc1-2 [SF1796-000]
IC50 (PTP1B; Table 29, read-out: PTP1B IC50): < 10 µM
IC50 (PTEN [2]; Table 29, read-out: PTEN IC50): 0.65 µM
inhibition at 250 µM (PTEN [5]; [8]): 99%

Compound: O=C1C(=O)c2cc(NS(=O)(=O)c3cccs3)ccc2-c2ccccc21 [SF1798-000]
IC50 (PTP1B): < 10 µM
IC50 (PTEN [2]): 0.369 µM
inhibition at 250 µM (PTEN [5]; [8]): 93.6%

Compound: O=C(Nc1ccc2c(c1)C(=O)C(=O)c1ccccc1-2)c1cccs1 [SF1799-000]
IC50 (PTP1B): < 10 µM
IC50 (PTEN [2]): 0.733 µM
inhibition at 250 µM (PTEN [5]; [8]): 99.4%
